Measured values reported in patent US20060093617A1, “Peptides for inducing a CTL and/or HTL response to hepatitis C virus” (Innogenetics, N.V., priority 2004, published 2006).
Where a SMILES comes first, the peptide text is derived from it.

Experiments:
[1] = biological target: T1, B*0702 (Homo sapiens, UniProt P01889); test: Competition binding assay using soluble HLA class I; settings: for Ki: Ki (nM), HLA-B0702 section
T1 construct: endogenous in cells

[2] = biological target: T2, DRB1*0101 (Homo sapiens, UniProt P01903+P01911, A100R/D57E/F55L/F60I/F76Y/I96L/L162R/M171V/P40L/Q125E/R42F/V115G/Y59C); test: Competition binding assay using soluble HLA class II
T2 construct: endogenous in cells; host or cells: cell lysate

[3] = biological target: T3, HLA-Cw06 (Homo sapiens, UniProt P10321, A176E/A330V/C350S/L171W/L180W/L218V/M285V/M309V/M331V/N104K/P208H/Q277E/Q291P/R121W/R243W/S101N/S123Y/S297R/T329A/T363A/V319A/V328M); test: HLA class I competition cell-based binding assay
T3 construct: endogenous in cells

Structure (SMILES) | Ki [1] [nM] | IC50 [2] [nM] | other results
CC(C)C[C@H](NC(=O)[C@@H]1CCCN1C(=O)[C@H](C)N)C(=O)NCC(=O)NCC(=O)N[C@@H](C)C(=O)N[C@@H](C)C(=O)N[C@@H](CCCNC(=N)N)C(=O)N[C@@H](C)C(=O)O | 115 | – | IC50 [1]: 115 nM
CSCC[C@H](NC(=O)[C@H](Cc1ccc(O)cc1)NC(=O)[C@H](C)NC(=O)CNC(=O)[C@H](Cc1ccccc1)NC(=O)CNC(=O)[C@H](CC(C)C)NC(=O)[C@@H](NC(=O)[C@H](C)N)[C@@H](C)O)C(=O)O (H-ATLGFGAYM-OH) | 13000 | – | –
CC(C)C[C@H](NC(=O)[C@H](C)NC(=O)[C@H](CCCNC(=N)N)NC(=O)[C@H](C)NC(=O)[C@H](C)N)C(=O)N[C@@H](C)C(=O)N[C@@H](Cc1c[nH]cn1)C(=O)NCC(=O)N[C@H](C(=O)O)C(C)C (H-AARALAHGV-OH; N-terminus and C-terminus assumed) | 209 | – | –
CC[C@H](C)[C@H](NC(=O)[C@H](CC(C)C)NC(=O)[C@H](C)NC(=O)CNC(=O)[C@@H](NC(=O)[C@H](Cc1c[nH]c2ccccc12)NC(=O)[C@@H](NC(=O)[C@H](Cc1ccc(O)cc1)NC(=O)[C@@H](N)CO)[C@@H](C)O)[C@@H](C)O)C(=O)N[C@H](C(=O)N1CCC[C@H]1C(=O)N[C@@H](CS)C(=O)N[C@@H](C)C(=O)N[C@@H](C)C(=O)N[C@@H](CCC(=O)O)C(=O)O)[C@@H](C)O | – | 5.63 | –
CC[C@H](C)[C@H](NC(=O)[C@@H]1CCCN1C(=O)[C@H](C)NC(=O)[C@H](CC(C)C)NC(=O)[C@H](CC(C)C)NC(=O)[C@H](CCCNC(=N)N)NC(=O)[C@H](Cc1c[nH]c2ccccc12)NC(=O)CNC(=O)[C@H](CCCCN)NC(=O)[C@@H](N)CO)C(=O)N[C@H](C(=O)N[C@@H](C)C(=O)N[C@@H](Cc1ccc(O)cc1)C(=O)N[C@@H](C)C(=O)N[C@@H](CCC(N)=O)C(=O)O)[C@@H](C)O | – | 0.4 | –
CC(C)C[C@H](NC(=O)[C@H](CC(N)=O)NC(=O)CNC(=O)[C@@H](NC(=O)[C@H](C)NC(=O)[C@H](Cc1ccc(O)cc1)NC(=O)[C@H](CC(N)=O)NC(=O)[C@@H](NC(=O)CN)C(C)C)[C@@H](C)O)C(=O)N1CCC[C@H]1C(=O)NCC(=O)N[C@@H](CS)C(=O)N[C@@H](CO)C(=O)N[C@@H](Cc1ccccc1)C(=O)N[C@@H](CO)C(=O)O | – | 4560 | –
CC(C)C[C@H](NC(=O)[C@@H](NC(=O)[C@H](C)NC(=O)[C@H](C)NC(=O)[C@@H](NC(=O)[C@H](CO)NC(=O)[C@@H]1CCCN1C(=O)[C@H](CC(N)=O)NC(=O)[C@H](CC(C)C)NC(=O)[C@@H](NC(=O)[C@H](CC(C)C)NC(=O)[C@@H](NC(=O)[C@H](CCCCN)NC(=O)[C@H](Cc1ccc(O)cc1)NC(=O)CN)C(C)C)C(C)C)C(C)C)[C@@H](C)O)C(=O)O | – | 8.4 | –
CC[C@H](C)[C@H](NC(=O)[C@@H](NC(=O)[C@@H](N)[C@@H](C)O)[C@@H](C)O)C(=O)N[C@@H](CCSC)C(=O)N[C@@H](C)C(=O)N[C@@H](CCCCN)C(=O)N[C@@H](CC(N)=O)C(=O)N[C@@H](CCC(=O)O)C(=O)N[C@H](C(=O)N[C@@H](Cc1ccccc1)C(=O)N[C@@H](CS)C(=O)N[C@H](C(=O)N[C@@H](CCC(N)=O)C(=O)N1CCC[C@H]1C(=O)N[C@@H](CCC(=O)O)C(=O)O)C(C)C)C(C)C (H-TTIMAKNEVFCVQPE-OH; N-terminus and C-terminus assumed) | – | 3730 | –
CC(C)C[C@H](NC(=O)CNC(=O)[C@H](CC(C)C)NC(=O)[C@H](C)NC(=O)[C@H](CO)NC(=O)[C@H](CC(C)C)NC(=O)[C@H](CCCCN)NC(=O)[C@H](C)NC(=O)[C@H](C)N)C(=O)O (H-AAKLSALGL-OH; N-terminus and C-terminus assumed) | 277 | – | IC50 [1]: 277 nM
CC(C)C[C@H](NC(=O)[C@H](CCCNC(=N)N)NC(=O)[C@@H]1CCCN1C(=O)CNC(=O)[C@H](CCCNC(=N)N)NC(=O)[C@H](CCCNC(=N)N)NC(=O)[C@@H]1CCCN1C(=O)[C@@H](N)CC(C)C)C(=O)O | 1 | – | –
CC[C@H](C)[C@H](NC(=O)[C@H](Cc1c[nH]cn1)NC(=O)[C@@H](NC(=O)[C@H](CC(C)C)NC(=O)CNC(=O)[C@@H](NC(=O)[C@H](Cc1ccccc1)NC(=O)[C@@H](NC(=O)[C@H](CO)NC(=O)[C@H](CCC(=O)O)NC(=O)[C@@H](N)Cc1c[nH]c2ccccc12)C(C)C)[C@@H](C)O)[C@@H](C)O)C(=O)N[C@@H](CC(=O)O)C(=O)N[C@@H](C)C(=O)N[C@@H](Cc1c[nH]cn1)C(=O)N[C@@H](Cc1ccccc1)C(=O)O | – | 122 | –
CC(C)C[C@H](NC(=O)[C@H](CCCNC(=N)N)NC(=O)[C@H](C)NC(=O)CN)C(=O)N[C@H](C(=O)N[C@H](C(=O)N[C@@H](CC(C)C)C(=O)N[C@@H](C)C(=O)N[C@H](C(=O)N[C@@H](C)C(=O)N[C@H](C(=O)N1CCC[C@H]1C(=O)N1CCC[C@H]1C(=O)NCC(=O)N[C@@H](CO)C(=O)O)[C@@H](C)O)[C@@H](C)O)C(C)C)C(C)C (H-GARLVVLATATPPGS-OH; N-terminus and C-terminus assumed) | – | 173 | –
C[C@H](N)C(=O)N1CCC[C@H]1C(=O)N[C@H](C(=O)NCC(=O)N[C@@H](CO)C(=O)NCC(=O)N[C@@H](CCCCN)C(=O)N[C@@H](CO)C(=O)N[C@H](C(=O)O)[C@@H](C)O)[C@@H](C)O (H-APTGSGKST-OH; N-terminus and C-terminus assumed) | 370 | – | IC50 [1]: 370 nM
CC(C)C[C@H](NC(=O)[C@H](CCCNC(=N)N)NC(=O)[C@@H]1CCCN1C(=O)CNC(=O)[C@H](CCCNC(=N)N)NC(=O)[C@H](CCCNC(=N)N)NC(=O)[C@@H]1CCCN1C(=O)[C@@H](N)CC(C)C)C(=O)NCC(=O)O | 124 | – | IC50 [1]: 124 nM
CC(C)C[C@H](NC(=O)[C@H](Cc1c[nH]cn1)NC(=O)[C@H](C)NC(=O)[C@@H](NC(=O)[C@H](CCC(N)=O)NC(=O)[C@H](Cc1ccccc1)NC(=O)[C@@H](NC(=O)[C@H](CCC(N)=O)NC(=O)[C@@H]1CCCN1)[C@@H](C)O)C(C)C)C(=O)N[C@@H](Cc1c[nH]cn1)C(=O)N[C@@H](C)C(=O)N1CCC[C@H]1C(=O)N[C@H](C(=O)NCC(=O)N[C@@H](CO)C(=O)O)[C@@H](C)O | – | 22 | –
CC(C)C[C@H](NC(=O)CNC(=O)[C@H](CCCNC(=N)N)NC(=O)[C@H](Cc1ccc(O)cc1)NC(=O)[C@H](Cc1ccc(O)cc1)NC(=O)[C@H](C)NC(=O)[C@@H](N)C(C)C)C(=O)N[C@@H](CC(=O)O)C(=O)N[C@H](C(=O)O)C(C)C | 1420 | – | Ki [3]: 231 nM
CC(C)[C@H](NC(=O)CNC(=O)[C@H](CCCNC(=N)N)NC(=O)[C@@H](NC(=O)[C@H](CS)NC(=O)[C@@H](NC(=O)[C@H](C)NC(=O)[C@H](C)NC(=O)[C@@H](N)CCCNC(=N)N)C(C)C)[C@@H](C)O)C(=O)N[C@@H](C)C(=O)N[C@@H](CCCCN)C(=O)N[C@@H](C)C(=O)N[C@H](C(=O)N[C@@H](CC(=O)O)C(=O)N[C@@H](Cc1ccccc1)C(=O)O)C(C)C | – | 619 | –
CC(C)[C@H](NC(=O)[C@H](CCCNC(=N)N)NC(=O)[C@H](CCC(N)=O)NC(=O)CNC(=O)[C@@H]1CCCN1C(=O)[C@H](CO)NC(=O)[C@H](Cc1ccc(O)cc1)NC(=O)[C@H](CCC(N)=O)NC(=O)[C@H](Cc1ccccc1)NC(=O)CNC(=O)[C@H](Cc1ccc(O)cc1)NC(=O)[C@H](CO)NC(=O)[C@H](CO)NC(=O)CN)C(=O)N[C@@H](CCC(=O)O)C(=O)O | – | 11 | –
CC[C@H](C)[C@H](NC(=O)[C@H](CC(N)=O)NC(=O)CNC(=O)[C@H](CC(C)C)NC(=O)[C@H](Cc1c[nH]c2ccccc12)NC(=O)[C@H](CO)NC(=O)[C@@H](N)CC(N)=O)C(=O)N[C@H](C(=O)N[C@@H](CCSC)C(=O)N[C@@H](Cc1ccc(O)cc1)C(=O)N[C@@H](C)C(=O)N1CCC[C@H]1C(=O)N[C@H](C(=O)N[C@@H](CC(C)C)C(=O)N[C@@H](Cc1c[nH]c2ccccc12)C(=O)O)[C@@H](C)O)[C@@H](C)CC | – | 1.2 | –
CSCC[C@H](NC(=O)[C@H](CC(C)C)NC(=O)[C@H](C)NC(=O)[C@H](CC(=O)O)NC(=O)[C@@H](NC(=O)[C@H](C)NC(=O)[C@@H](NC(=O)[C@@H](NC(=O)[C@@H](NC(=O)[C@@H](NC(=O)[C@@H](N)CC(=O)O)C(C)C)C(C)C)C(C)C)C(C)C)[C@@H](C)O)C(=O)N[C@H](C(=O)NCC(=O)N[C@@H](Cc1ccc(O)cc1)C(=O)N[C@H](C(=O)O)[C@@H](C)O)[C@@H](C)O | – | 456 | –
CSCC[C@H](NC(=O)CNC(=O)[C@H](CO)NC(=O)[C@@H]1CCCN1C(=O)[C@H](CCCNC(=N)N)NC(=O)[C@H](CCC(=O)O)NC(=O)CNC(=O)[C@@H]1CCCN1C(=O)[C@@H](N)[C@@H](C)O)C(=O)O (H-TPGERPSGM-OH) | 199 | – | IC50 [1]: 199 nM
CC(C)C[C@H](NC(=O)[C@H](C)NC(=O)CNC(=O)[C@H](C)NC(=O)[C@@H](NC(=O)CNC(=O)[C@H](C)NC(=O)CNC(=O)[C@H](Cc1ccc(O)cc1)NC(=O)CNC(=O)[C@H](C)NC(=O)[C@@H](N)CC(C)C)C(C)C)C(=O)N[C@H](C(=O)N[C@@H](C)C(=O)N[C@@H](Cc1ccccc1)C(=O)O)C(C)C | – | 137 | –
CC[C@H](C)[C@H](NC(=O)[C@H](CC(N)=O)NC(=O)CNC(=O)[C@H](CC(C)C)NC(=O)[C@H](Cc1c[nH]c2ccccc12)NC(=O)[C@H](CO)NC(=O)[C@H](CC(N)=O)NC(=O)[C@@H](N)C(C)C)C(=O)N[C@H](C(=O)N[C@@H](CCSC)C(=O)N[C@@H](Cc1ccc(O)cc1)C(=O)N[C@@H](C)C(=O)N1CCC[C@H]1C(=O)N[C@H](C(=O)N[C@@H](CC(C)C)C(=O)O)[C@@H](C)O)[C@@H](C)CC | – | 1.42 | –
CC[C@H](C)[C@H](NC(=O)[C@H](Cc1ccc(O)cc1)NC(=O)CNC(=O)[C@H](CCSC)NC(=O)[C@H](CC(C)C)NC(=O)[C@H](CC(=O)O)NC(=O)[C@H](C)N)C(=O)N1CCC[C@H]1C(=O)N[C@@H](CC(C)C)C(=O)N[C@H](C(=O)NCC(=O)N[C@@H](C)C(=O)N1CCC[C@H]1C(=O)N[C@@H](CC(C)C)C(=O)NCC(=O)O)C(C)C | – | 8330 | –
